From patent US20170157301A1, “LEOLIGIN DERIVATIVES AS SMOOTH MUSCLE CELL PROLIFERATION INHIBITORS” (TECHNISCHE UNIVERSITAET WIEN, priority 2014, published 2017)
pIC50: −log10 of the molar value.

Legend:
rat aortic SMCs = assay: vascular SMC proliferation (PDGF-induced, resazurin conversion); format: cell-based
[1] = system: HUVECtert immortalized human umbilical vein endothelial cells; assay: endothelial cell proliferation (resazurin); format: cell-based
SMCs in relation to ECs = assay: activity ratio: efficiency towards SMCs / efficiency towards ECs; format: cell-based; settings: for a.r. code: activity ratio class, order in Table 1 follows the calculated values
Experimental: For determination of vascular SMC proliferation, 0.5×10^4 viable rat aortic SMCs per well were seeded in SMC growth medium (DMEM/F12 medium with 20% serum, 30 μg/mL Gentamicin and 15 ng/mL Amphotericin) in 96-well plates. 24 h later, the medium was removed, the cells were washed once with SMC starvation medium (DMEM/F12 medium with 0.1% serum, 0.2% BSA, 30 μg/mL Gentamicin and 15 ng/mL Amphotericin) and incubated in starvation medium for further 24 h.
The quiescent cells were then pretreated for 30 min with the test compounds and induced to proliferate with 20 ng/mL platelet-derived growth factor (PDGF). Unstimulated cells were utilized for normalization and estimation of the basal level of proliferation. The final concentration of the solvent vehicle, dimethyl sulfoxide (DMSO), was the same (0.1%) in all wells. 48 h later, the SMC proliferation was quantified by resazurin dye conversion for 2 h as previously described (H. Joa et al., J. Nat. Prod. 74(6), 1513-6 (2011)).
For determination of endothelial cell proliferation, 0.5×10^4 HUVECtert immortalized human umbilical vein endothelial cells (H. B. Schiller et al., Mol. Biol. Cell. 20(3), 745-756 (2009)) were seeded in 96-well plates for 24 h in HUVEC Complete Medium (EBM™ growth medium supplemented with 10% fetal bovine serum, EBM™ SingleQuots (Lonza, Basel, Switzerland), 100 U/mL benzylpenicillin, 100 μg/mL streptomycin, and 1% amphotericin). Afterwards, the medium was exchanged with fresh HUVEC Complete Medium and cells were treated with the indicated compounds for 48 h. After the end of the incubation period, the medium was removed, the cells were washed once with 200 μL/well PBS, and treated with 150 μL HUVEC Complete Medium containing 10 μg/mL resazurin. 2 h later, the fluorescence was measured at a wavelength of 580 nm, with excitation wavelength 535 nm in a 96-well plate reader (Tecan GENios Pro; Tecan Group Ltd., Mannedorf, Switzerland).
In every case, the percentage of viable cells was subtracted from 1, in order to obtain a measure of efficiency of the test compounds towards each particular type of cells, and subsequently, the efficiency quotient towards SMCs and ECs was calculated and taken as the “activity ratio” and thus as a measure of selective efficiency of each test compound towards SMCs in relation to ECs. For example, the synthetic Leoligin with the bio ID 2418 prepared in Comparative Example 27 as compound 10-22 gave the following results:
Due to the usual fluctuations in determining surviving cells, which amount to approximately ±10%, and due to the relatively strong resulting fluctuations in calculating quotients—especially if the inhibitory effect of said novel compounds towards ECs is very poor—said threshold value of 1.50 for the activity ratio, as already mentioned above, was introduced.
In the following, a table listing every compound prepared in examples and comparative Examples for which an activity ratio (a.r.) of >1.0 was determined, is given.

SMCs [2] = assay: IC50 of Leoligin for SMCs (A. Knolz, Master's Thesis, University of Innsbruck, 2008); format: cell-based
SMCs [3] = settings: cited from earlier work
ECs = settings: cited from earlier work

Row | SMILES | a.r. code (SMCs in relation to ECs) | also measured
1 | C/C=C(/C)C(=O)OC[C@H]1[C@@H](Cc2ccc(OC)c(OC)c2)CO[C@@H]1c1ccc(OC)c(OC)c1 [Leoligin, (Z)-((2S,3R,4R)-4-(3,4-dimethoxybenzyl)-2-(3,4-dimethoxyphenyl)tetrahydro-furan-3-yl)methyl 2-methylbut-2-enoate] |  | Efficiency towards SMCs (rat aortic SMCs; 1 minus fraction of surviving SMCs): 1-0.81 = 0.19; Percentage of surviving SMCs (rat aortic SMCs; rat aortic SMCs, 20 ng/mL PDGF, 48 h, resazurin): 0.81 (81%); Efficiency towards ECs ([1]; 1 minus fraction of surviving ECs): 1-0.51 = 0.49; Percentage of surviving ECs ([1]; HUVECtert, 48 h, resazurin): 0.51 (51%); inverse value of activity ratio (factor of selective inhibition of ECs relative to SMCs) (SMCs in relation to ECs; inverse of 0.39): approximately 2.5; inverse value of IC50 ratio (measure for selective inhibition of ECs compared to SMCs) (SMCs [2]; from cited IC50 values): 3.0; IC50 ratio (measure for selective inhibition of SMCs compared to ECs) (SMCs [2]; from cited IC50 values for ECs and SMCs): 0.33; pIC50 (SMCs [3]): 4.26; pIC50 (ECs): 4.75
2 | COc1ccc(C[C@H]2CO[C@H](c3ccccc3)[C@H]2COC(=O)C2CCCCC2)cc1OC [Example 28, ((2S,3R,4R)-4-(3,4-dimethoxybenzyl)-2-phenyltetrahydrofuran-3-yl)methyl cyclohexanecarboxylate] | A (a.r. ≧ 1.50) | 
3 | COc1ccc(C[C@H]2CO[C@H](c3cc(OC)c(OC)c(OC)c3)[C@H]2COC(=O)C2CC2)cc1OC [Example 41, ((2S,3R,4R)-4-(3,4-dimethoxybenzyl)-2-(3,4,5-trimethoxyphenyl)tetrahydro-furan-3-yl)methyl cyclopropanecarboxylate] | AA (a.r. ≧ 2.0) | 
4 | C/C=C(/C)C(=O)OC[C@H]1[C@@H](Cc2ccc(C(C)(C)C)cc2)CO[C@@H]1c1ccc(F)cc1 [Example 18, (Z)-((2S,3R,4R)-4-(4-(tert-butyl)benzyl)-2-(4-fluorophenyl)tetrahydrofuran-3-yl)methyl 2-methylbut-2-enoate] | AAA (a.r. ≧ 5.0) | 
5 | C#CCOC[C@H]1[C@@H](Cc2ccc(OC)c(OC)c2)CO[C@@H]1c1ccc(OC)c(OC)c1 [Example 43, (2S,3R,4R)-4-(3,4-dimethoxybenzyl)-2-(3,4-dimethoxyphenyl)-3-((prop-2-yn-1-yloxy)methyl)tetrahydrofuran] | A (a.r. ≧ 1.50) | 
6 | C/C=C(/C)C(=O)OC[C@H]1[C@@H](Cc2ccc(C(C)(F)F)cc2)CO[C@@H]1c1ccc(OC)c(OC)c1 [Example 14, (Z)-((2S,3R,4R)-4-(4-(1,1-difluoroethyl)benzyl)-2-(3,4-dimethoxyphenyl)tetra-hydrofuran-3-yl)methyl 2-methylbut-2-enoate] | A (a.r. ≧ 1.50) | 
7 | COc1cc([C@H]2OC[C@H](Cc3ccc(C(F)(F)F)cc3)[C@@H]2CO)cc(OC)c1OC [Example 8, ((2S,3R,4R)-4-(4-(trifluoromethyl)benzyl)-2-(3,4,5-trimethoxyphenyl)tetrahydro-furan-3-yl)methanol] | AAA (a.r. ≧ 5.0) | 
8 | C/C=C(/C)C(=O)OC[C@H]1[C@@H](Cc2ccc(C(=O)OCC)cc2)CO[C@@H]1c1ccc(OC)c(OC)c1 [Example 11, ethyl 4-(((3R,4R,5S)-5-(3,4-dimethoxyphenyl)-4-((((Z)-2-methylbut-2-enoyl)-oxy)methyl)tetrahydrofuran-3-yl)methyl)benzoate] | A (a.r. ≧ 1.50) | 
9 | C/C=C(/C)C(=O)OC[C@H]1[C@@H](Cc2ccc(OC)c(OC)c2)CO[C@@H]1c1ccc(F)cc1 [Comparative Example 26, (Z)-((2S,3R,4R)-4-(3,4-dimethoxybenzyl)-2-(4-fluorophenyl)tetrahydrofuran-3-yl)methyl 2-methylbut-2-enoate] | V (1.0 < a.r. < 1.50) | 
10 | C/C=C(/C)C(=O)OC[C@H]1[C@@H](Cc2ccc(C(=O)OCC)cc2)CO[C@@H]1c1cc(OC)c(OC)c(OC)c1 [Example 22, ethyl 4-(((3R,4R,5S)-4-((((Z)-2-methylbut-2-enoyl)oxy)methyl)-5-(3,4,5-trimethoxyphenyl)tetrahydrofuran-3-yl)methyl)benzoate] | AA (a.r. ≧ 2.0) | 
11 | C/C=C(/C)C(=O)OC[C@H]1[C@@H](Cc2ccc(C(C)(C)C)cc2)CO[C@@H]1c1cc(OC)c(OC)c(OC)c1 [Example 20, (Z)-((2S,3R,4R)-4-(4-(tert-butyl)benzyl)-2-(3,4,5-trimethoxyphenyl)tetrahydro-furan-3-yl)methyl 2-methylbut-2-enoate] | AA (a.r. ≧ 2.0) | 
12 | C/C=C(/C)C(=O)OC[C@H]1[C@@H](Cc2ccccc2)CO[C@@H]1c1cc(OC)c(OC)c(OC)c1 [Comparative Example 31, (Z)-((2S,3R,4R)-4-benzyl-2-(3,4,5-trimethoxyphenyl)tetrahydrofuran-3-yl)-methyl 2-methylbut-2-enoate] | V (1.0 < a.r. < 1.50) | 
13 | COc1ccc(C[C@H]2CO[C@H](c3cc(OC)c(OC)c(OC)c3)[C@H]2COC(=O)C2=CCCCC2)cc1OC [Comparative Example 46, ((2S,3R,4R)-4-(3,4-dimethoxybenzyl)-2-(3,4,5-trimethoxyphenyl)tetrahydro-furan-3-yl)methyl cyclohex-1-enecarboxylate] | V (1.0 < a.r. < 1.50) | 
14 | COc1ccc(C[C@H]2CO[C@H](c3ccc(OC)c(OC)c3)[C@H]2COC(=O)C2CCCC2)cc1OC [Comparative Example 36, ((2S,3R,4R)-4-(3,4-dimethoxybenzyl)-2-(3,4-dimethoxyphenyl)tetrahydrofuran-3-yl)methyl cyclopentanecarboxylate] | V (1.0 < a.r. < 1.50) | 
15 | C/C=C(/C)C(=O)OC[C@H]1[C@@H](Cc2ccc(OC)cc2)CO[C@@H]1c1cc(OC)c(OC)c(OC)c1 [Comparative Example 33, (Z)-((2S,3R,4R)-4-(4-methoxybenzyl)-2-(3,4,5-trimethoxyphenyl)tetrahydro-furan-3-yl)methyl 2-methylbut-2-enoate] | V (1.0 < a.r. < 1.50) | 
16 | COc1ccc(C[C@H]2CO[C@H](c3cc(OC)c(OC)c(OC)c3)[C@H]2COC(=O)C2CCCC2)cc1OC [Example 40, ((2S,3R,4R)-4-(3,4-dimethoxybenzyl)-2-(3,4,5-trimethoxyphenyl)tetrahydro-furan-3-yl)methyl cyclopentanecarboxylate] | AA (a.r. ≧ 2.0) | 
17 | COc1ccc(C[C@H]2CO[C@H](c3ccccc3)[C@H]2COC(=O)C2CCCC2)cc1OC [Example 26, ((2S,3R,4R)-4-(3,4-dimethoxybenzyl)-2-phenyltetrahydrofuran-3-yl)methyl cyclopentanecarboxylate] | A (a.r. ≧ 1.50) | 
18 | COc1ccc(C[C@H]2CO[C@H](c3ccc(F)cc3)[C@H]2COC(=O)CC(C)C)cc1OC [Example 32, ((2S,3R,4R)-4-(3,4-dimethoxybenzyl)-2-(4-fluorophenyl)tetrahydrofuran-3-yl)-methyl 3-methylbutanoate] | AAA (a.r. ≧ 5.0) | 
